Test results published in the supplement of paper PMC6045584.
± gives the standard deviation of the averaged measurements.

Key:
CANERTINIB [1] = compound: T1, C=CC(=O)Nc1cc2c(Nc3ccc(F)c(Cl)c3)ncnc2cc1OCCCN1CCOCC1 [CANERTINIB]; assay: surviving fraction relative to DMSO-only wells; higher = less growth inhibition; settings: exposure time: 5 days
Outline: (§1)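 Viability values are CellTiter-Glo luminescence readings, given as surviving fraction against the median of DMSO-only wells. The readings were taken after 10 minutes at room temperature, following five days of continuous exposure to inhibitors at 0.5, 1, 5, 10, 50, 100, 500 and 1000 nM that began 24 hours after log-phase tumour cell lines were seeded at 250–500 cells per well in 384-well plates. Every line was screened three times and kept only if replicate Pearson r >0.7 and median Z' >0.3.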

SNX-5422 [2] = compound: T2, CC1(C)CC(=O)c2c(C(F)(F)F)nn(-c3ccc(C(N)=O)c(N[C@H]4CC[C@H](OC(=O)CN)CC4)c3)c2C1 [SNX-5422]; assay: as above; settings: exposure time: 5 days
Outline: as §1

SAPACITABINE [3] = compound: T3, CCCCCCCCCCCCCCCC(=O)Nc1ccn([C@@H]2O[C@H](CO)[C@@H](O)[C@@H]2C#N)c(=O)n1 [SAPACITABINE]; assay: as above; settings: exposure time: 5 days
Outline: as §1

BI-2536 [4] = compound: T4, CC[C@@H]1C(=O)N(C)c2cnc(Nc3ccc(C(=O)NC4CCN(C)CC4)cc3OC)nc2N1C1CCCC1 [BI-2536]; assay: as above; settings: exposure time: 5 days
Outline: as §1

AFATINIB [5] = compound: T5, CN(C)C/C=C/C(=O)Nc1cc2c(Nc3ccc(F)c(Cl)c3)ncnc2cc1O[C@H]1CCOC1 [AFATINIB]; assay: as above; settings: exposure time: 5 days
Outline: as §1

MDV3100 [6] = compound: T6, CNC(=O)c1ccc(N2C(=S)N(c3ccc(C#N)c(C(F)(F)F)c3)C(=O)C2(C)C)cc1F [MDV3100]; assay: as above; settings: exposure time: 5 days
Outline: as §1

[7] = compound: Cn1cc(C2=Nc3cc(NC(=O)C(N)C4CCCCC4)cc4c3C2=CNNC4=O)cn1; assay: as above; settings: exposure time: 5 days
Outline: as §1

TIOGUANINE [8] = compound: T7, Nc1nc2[nH]cnc2c(=S)[nH]1 [TIOGUANINE]; assay: as above; settings: exposure time: 5 days
Outline: as §1

CANERTINIB [9] = compound: T1, CANERTINIB; assay: area under dose-response curve of surviving fraction (unscaled, Aref=0) (surviving fraction x log10(nM)); higher = more resistant; settings: exposure time: 5 days; dose range 0.5-1000 nM
Outline: (§2)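 Tumour cell lines in 384-well plates were exposed for five days to eight inhibitor concentrations from 0.5 to 1000 nM. Viability was read by CellTiter-Glo luminescence, normalised to DMSO-only wells, in three screens per line. Dose-response survival curves were fitted to surviving fractions by 3-parameter logistic regression in the drc R package. Area under the curve is the unscaled activity area (Aref = 0) over log10 dose.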

SNX-5422 [10] = compound: T2, SNX-5422; assay: as above; settings: exposure time: 5 days; dose range 0.5-1000 nM
Outline: as §2

SAPACITABINE [11] = compound: T3, SAPACITABINE; assay: as above; settings: exposure time: 5 days; dose range 0.5-1000 nM
Outline: as §2

BI-2536 [12] = compound: T4, BI-2536; assay: as above; settings: exposure time: 5 days; dose range 0.5-1000 nM
Outline: as §2

AFATINIB [13] = compound: T5, AFATINIB; assay: as above; settings: exposure time: 5 days; dose range 0.5-1000 nM
Outline: as §2

MDV3100 [14] = compound: T6, MDV3100; assay: as above; settings: exposure time: 5 days; dose range 0.5-1000 nM
Outline: as §2

[15] = compound: Cn1cc(C2=Nc3cc(NC(=O)C(N)C4CCCCC4)cc4c3C2=CNNC4=O)cn1; assay: as above; settings: exposure time: 5 days; dose range 0.5-1000 nM
Outline: as §2

TIOGUANINE [16] = compound: T7, TIOGUANINE; assay: as above; settings: exposure time: 5 days; dose range 0.5-1000 nM
Outline: as §2

## HCC1395 BREAST
CANERTINIB [1]; 0.5 nM
  surviving fraction: 0.955 ± 0.095
CANERTINIB [1]; 1 nM
  surviving fraction: 0.901 ± 0.022
CANERTINIB [1]; 5 nM
  surviving fraction: 1 ± 0.15
CANERTINIB [1]; 10 nM
  surviving fraction: 0.905 ± 0.059
CANERTINIB [1]; 50 nM
  surviving fraction: 1.13 ± 0.068
CANERTINIB [1]; 100 nM
  surviving fraction: 1.05 ± 0.021
CANERTINIB [1]; 500 nM
  surviving fraction: 1.06 ± 0.11
CANERTINIB [1]; 1000 nM
  surviving fraction: 1.01 ± 0.066
SNX-5422 [2]; 0.5 nM
  surviving fraction: 0.865 ± 0.17
SNX-5422 [2]; 1 nM
  surviving fraction: 0.862 ± 0.071
SNX-5422 [2]; 5 nM
  surviving fraction: 0.943 ± 0.15
SNX-5422 [2]; 10 nM
  surviving fraction: 1.16 ± 0.23
SNX-5422 [2]; 50 nM
  surviving fraction: 0.975 ± 0.15
SNX-5422 [2]; 100 nM
  surviving fraction: 1.15 ± 0.066
SNX-5422 [2]; 500 nM
  surviving fraction: 0.818 ± 0.1
SNX-5422 [2]; 1000 nM
  surviving fraction: 0.893 ± 0.05
SAPACITABINE [3]; 0.5 nM
  surviving fraction: 0.861 ± 0.028
SAPACITABINE [3]; 1 nM
  surviving fraction: 0.828 ± 0.045
SAPACITABINE [3]; 5 nM
  surviving fraction: 0.949 ± 0.035
SAPACITABINE [3]; 10 nM
  surviving fraction: 0.877 ± 0.04
SAPACITABINE [3]; 50 nM
  surviving fraction: 0.935 ± 0.14
SAPACITABINE [3]; 100 nM
  surviving fraction: 0.889 ± 0.028
SAPACITABINE [3]; 500 nM
  surviving fraction: 0.808 ± 0.16
SAPACITABINE [3]; 1000 nM
  surviving fraction: 0.715 ± 0.15
BI-2536 [4]; 0.5 nM
  surviving fraction: 1.04 ± 0.12
BI-2536 [4]; 1 nM
  surviving fraction: 0.9 ± 0.043
BI-2536 [4]; 5 nM
  surviving fraction: 0.709 ± 0.18
BI-2536 [4]; 10 nM
  surviving fraction: 0.623 ± 0.15
BI-2536 [4]; 50 nM
  surviving fraction: 0.729 ± 0.071
BI-2536 [4]; 100 nM
  surviving fraction: 0.661 ± 0.05
BI-2536 [4]; 500 nM
  surviving fraction: 1.11 ± 0.19
BI-2536 [4]; 1000 nM
  surviving fraction: 0.78 ± 0.029
AFATINIB [5]; 0.5 nM
  surviving fraction: 1.05 ± 0.14
AFATINIB [5]; 1 nM
  surviving fraction: 1.14 ± 0.1
AFATINIB [5]; 5 nM
  surviving fraction: 1.03 ± 0.043
AFATINIB [5]; 10 nM
  surviving fraction: 1.13 ± 0.046
AFATINIB [5]; 50 nM
  surviving fraction: 1.01 ± 0.15
AFATINIB [5]; 100 nM
  surviving fraction: 1.12 ± 0.026
AFATINIB [5]; 500 nM
  surviving fraction: 1.05 ± 0.23
AFATINIB [5]; 1000 nM
  surviving fraction: 0.92 ± 0.12
MDV3100 [6]; 0.5 nM
  surviving fraction: 1.18 ± 0.027
MDV3100 [6]; 1 nM
  surviving fraction: 1.14 ± 0.089
MDV3100 [6]; 5 nM
  surviving fraction: 1.24 ± 0.075
MDV3100 [6]; 10 nM
  surviving fraction: 1.08 ± 0.19
MDV3100 [6]; 50 nM
  surviving fraction: 1.18 ± 0.15
MDV3100 [6]; 100 nM
  surviving fraction: 1.1 ± 0.15
MDV3100 [6]; 500 nM
  surviving fraction: 1.18 ± 0.16
MDV3100 [6]; 1000 nM
  surviving fraction: 1.16 ± 0.024
[7]; 0.5 nM
  surviving fraction: 0.805 ± 0.1
[7]; 1 nM
  surviving fraction: 0.961 ± 0.16
[7]; 5 nM
  surviving fraction: 0.938 ± 0.13
[7]; 10 nM
  surviving fraction: 0.975 ± 0.11
[7]; 50 nM
  surviving fraction: 0.766 ± 0.071
[7]; 100 nM
  surviving fraction: 0.68 ± 0.17
[7]; 500 nM
  surviving fraction: 0.578 ± 0.088
[7]; 1000 nM
  surviving fraction: 0.521 ± 0.065
TIOGUANINE [8]; 0.5 nM
  surviving fraction: 0.999 ± 0.06
TIOGUANINE [8]; 1 nM
  surviving fraction: 1.12 ± 0.064
TIOGUANINE [8]; 5 nM
  surviving fraction: 0.968 ± 0.1
TIOGUANINE [8]; 10 nM
  surviving fraction: 1.11 ± 0.054
TIOGUANINE [8]; 50 nM
  surviving fraction: 1.05 ± 0.039
TIOGUANINE [8]; 100 nM
  surviving fraction: 1.16 ± 0.04
TIOGUANINE [8]; 500 nM
  surviving fraction: 1.11 ± 0.086
TIOGUANINE [8]; 1000 nM
  surviving fraction: 1.09 ± 0.081
CANERTINIB [9]
  area under dose-response curve: 3.33
SNX-5422 [10]
  area under dose-response curve: 3.15
SAPACITABINE [11]
  area under dose-response curve: 2.91
BI-2536 [12]
  area under dose-response curve: 2.69
AFATINIB [13]
  area under dose-response curve: 3.5
MDV3100 [14]
  area under dose-response curve: 3.87
[15]
  area under dose-response curve: 2.62
TIOGUANINE [16]
  area under dose-response curve: 3.56
